In patent publication US8501446B2 (Vertex Pharmaceuticals Incorporated, priority 2004, dated 2013):

Legend:
Assay type in all cases: biochemical
[1] = biological target: T1, ROCK I (AA 6-553) (Homo sapiens, UniProt Q13464); assay: ROCK inhibition assay, standard coupled enzyme system ("Enzyme"); settings: enzyme-linked assay
T1 construct: ROCK I (AA 6-553)
Summary of the method: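 ROCK I (AA 6-553) at 45 nM and 30 °C with 45 μM ATP and 200 μM peptide, in 100 mM HEPES pH 7.5, 10 mM MgCl2, 25 mM NaCl, 2 mM DTT, 1.5% DMSO. ADP output read by a PK/LDH coupled system: 2.5 mM PEP, 350 μM NADH, 30 μg/ml PK, 10 μg/ml LDH.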

[2] = biological target: T2, Aurora-C (Homo sapiens, UniProt Q9UQB9); assay: Aurora-C inhibition assay, coupled enzyme system as for Aurora-A; settings: average Ki if more than one value determined
T2 sequence (Q9UQB9 1-309): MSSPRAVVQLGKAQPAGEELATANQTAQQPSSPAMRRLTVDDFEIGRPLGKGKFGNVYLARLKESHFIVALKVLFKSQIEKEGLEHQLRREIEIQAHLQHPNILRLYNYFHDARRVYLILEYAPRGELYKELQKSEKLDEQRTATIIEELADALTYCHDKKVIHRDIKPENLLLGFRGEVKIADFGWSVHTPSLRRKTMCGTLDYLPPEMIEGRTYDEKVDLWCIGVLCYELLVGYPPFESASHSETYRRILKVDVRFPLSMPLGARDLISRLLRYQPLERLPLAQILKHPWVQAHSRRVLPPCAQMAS
Description: Compounds were screened for their ability to inhibit full length Aurora-A (AA 1-403) activity using a standard coupled enzyme system (Fox et al., Protein Sci. 7, pp. 2249 (1998)). Reactions were carried out in a solution containing 100 mM HEPES (pH 7.5), 10 mM MgCl2, 25 mM NaCl, 300 μM NADH, 1 mM DTT and 3% DMSO. Final substrate concentrations in the assay were 200 μM ATP (Sigma Chemicals, St Louis, Mo.) and 800 μM peptide (LRRASLG, American Peptide, Sunnyvale, Calif.). Reactions were carried out at 30° C. and 35 nM Aurora-A. Final concentrations of the components of the coupled enzyme system were 2.5 mM phosphoenolpyruvate, 200 μM NADH, 60 μg/ml pyruvate kinase and 20 μg/ml lactate dehydrogenase.
(§1) An assay stock buffer solution was prepared containing all of the reagents listed above with the exception of ATP and the test compound of interest. The assay stock buffer solution (60 μl) was incubated in a 96 well plate with 2 μl of the test compound of interest at final concentrations spanning 0.002 μM to 30 μM at 30° C. for 10 min. Typically, a 12 point titration was conducted by preparing serial dilutions (from 1 mM compound stocks) with DMSO of the test compounds in daughter plates. The reaction was initiated by the addition of 5 μl of ATP (final concentration 200 μM). Rates of reaction were obtained using a Molecular Devices Spectramax plate reader (Sunnyvale, Calif.) over 10 min at 30° C. The Ki values were determined from the rate data as a function of inhibitor concentration using computerized nonlinear regression (Prism 3.0, Graphpad Software, San Diego, Calif.). Aurora-C activity was screened in a similar manner using Aurora-C protein. Aurora-B activity was screened using a radioactive assay, such as described in Examples 1 and 2, but using Aurora-B protein.

[3] = biological target: T3, full length Aurora-A (AA 1-403) (Homo sapiens, UniProt O14965); assay: Aurora-A inhibition assay, standard coupled enzyme system; settings: average Ki if more than one value determined
T3 construct: full length Aurora-A (AA 1-403)
T3 sequence (O14965 1-403): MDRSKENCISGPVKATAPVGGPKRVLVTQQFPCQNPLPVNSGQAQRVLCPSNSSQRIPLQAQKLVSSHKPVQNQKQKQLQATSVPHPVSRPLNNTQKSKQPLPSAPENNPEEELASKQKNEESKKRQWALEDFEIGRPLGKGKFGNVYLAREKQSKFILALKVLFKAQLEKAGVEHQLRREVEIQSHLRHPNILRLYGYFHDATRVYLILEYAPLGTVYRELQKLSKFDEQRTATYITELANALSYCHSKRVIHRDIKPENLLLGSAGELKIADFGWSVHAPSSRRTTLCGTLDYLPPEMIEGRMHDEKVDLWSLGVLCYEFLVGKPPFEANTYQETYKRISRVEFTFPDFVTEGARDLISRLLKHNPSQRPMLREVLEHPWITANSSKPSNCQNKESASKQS

[4] = biological target: Aurora-B (Homo sapiens, UniProt Q96GD4); assay: Aurora-B inhibition assay, radioactive assay; settings: average Ki if more than one value determined
Chain of Aurora-B (Q96GD4 whole entry): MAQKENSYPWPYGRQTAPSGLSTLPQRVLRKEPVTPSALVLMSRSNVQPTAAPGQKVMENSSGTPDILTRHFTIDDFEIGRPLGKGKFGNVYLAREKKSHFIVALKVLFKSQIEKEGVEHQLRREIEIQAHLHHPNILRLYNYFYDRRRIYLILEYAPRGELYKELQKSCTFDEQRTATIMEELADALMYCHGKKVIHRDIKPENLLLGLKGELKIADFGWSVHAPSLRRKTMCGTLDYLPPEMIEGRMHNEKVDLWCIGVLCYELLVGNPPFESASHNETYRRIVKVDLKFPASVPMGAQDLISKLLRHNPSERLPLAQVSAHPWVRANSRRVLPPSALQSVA
Description: Compounds were screened for their ability to inhibit JAK3 using a standard radioactive enzyme assay. 1.5 μL/well of a DMSO stock containing serial dilutions of a compound of the present invention (concentrations ranging from 667 μM to 46 nM) was placed in a 96 well polycarbonate plate. 50 μL per well of kinase buffer (100 mM HEPES (pH 7.4), 10 mM MgCl2, 25 mM NaCl, 1 mM DTT, and 0.01% bovine serum albumin (BSA)) containing 2 μM poly(Glu)4Tyr and 10 μM ATP was also added to the plate. To initiate the reaction, 50 μL kinase buffer containing 2 nM JAK3 enzyme was added. Final ATP concentration was 5 μM [γ-^33P] ATP (200 μCi ^33P ATP/μmol ATP (Perkin Elmer, Cambridge, Mass.). After 20 minutes at room temperature (25° C.), the reaction was stopped by adding 50 μL 20% trichloroacetic acid (TCA)/0.4 mM ATP to each well. The entire content of each well was then transferred to a 96 well glass fiber filter plate using a TomTek Cell Harvester. After washing, 60 μL scintillation fluid was added and ^33P incorporation detected using a Perkin Elmer TopCount. After removing mean background values for all of the data points the data was fit using Prism software to obtain a Ki(app). Inhibition of JAK2 was measured as above except that final poly(Glu)4Tyr concentration was 15 μM and final ATP concentration was 12 μM.
Some compounds were screened for their ability to inhibit ROCK using a standard radioactive enzyme assay. Assays were carried out in a solution containing 100 mM HEPES (pH 7.5), 10 mM MgCl2, 25 mM NaCl, 2 mM DTT, and 1.5% DMSO. Final substrate concentrations in the assay were 13 μM [γ-^33P] ATP (25 mCi ^33P ATP/mmol ATP, Perkin Elmer, Cambridge, Mass./Sigma Chemicals, St Louis, Mo.) and 27 μM Myelin Basic Protein (MBP). Final enzyme concentration in the assay was 5 nM ROCK. Assays were carried out at room temperature. 1.5 μl of DMSO stock containing serial dilutions of the compound of the present invention (concentrations ranging from 10 μM to 2.6 nM) was placed in a 96 well plate. 50 μl of Solution 1 (100 mM HEPES (pH 7.5), 10 mM MgCl2, […]) was added to the plate. The reaction was initiated by addition of 50 μl of Solution 2 (100 mM HEPES (pH 7.5), 10 mM MgCl2, 4 mM DTT, […] and 10 nM ROCK). After 2 hours the reaction was quenched with 50 μL of 30% trichloroacetic acid (TCA, Fisher) containing 9 mM ATP. Transfer of 140 μL of the quenched reaction to a glass fiber filter plate (Corning, Cat. No. 3511) was followed by washing 3 times with 5% TCA. 50 μL of Optima Gold scintillation fluid (Perkin Elmer) was added and the plates were counted on a Top Count (Perkin Elmer). After removing mean background values for all of the data points the data was fit using Prism software to obtain a Ki(app).
as §1

[5] = biological target: JAK2 (Homo sapiens, UniProt O60674); assay: JAK2 inhibition assay (radioactive enzyme assay, as for JAK3); settings: average Ki if more than one value determined
Chain of JAK2 (O60674 whole entry, species assumed): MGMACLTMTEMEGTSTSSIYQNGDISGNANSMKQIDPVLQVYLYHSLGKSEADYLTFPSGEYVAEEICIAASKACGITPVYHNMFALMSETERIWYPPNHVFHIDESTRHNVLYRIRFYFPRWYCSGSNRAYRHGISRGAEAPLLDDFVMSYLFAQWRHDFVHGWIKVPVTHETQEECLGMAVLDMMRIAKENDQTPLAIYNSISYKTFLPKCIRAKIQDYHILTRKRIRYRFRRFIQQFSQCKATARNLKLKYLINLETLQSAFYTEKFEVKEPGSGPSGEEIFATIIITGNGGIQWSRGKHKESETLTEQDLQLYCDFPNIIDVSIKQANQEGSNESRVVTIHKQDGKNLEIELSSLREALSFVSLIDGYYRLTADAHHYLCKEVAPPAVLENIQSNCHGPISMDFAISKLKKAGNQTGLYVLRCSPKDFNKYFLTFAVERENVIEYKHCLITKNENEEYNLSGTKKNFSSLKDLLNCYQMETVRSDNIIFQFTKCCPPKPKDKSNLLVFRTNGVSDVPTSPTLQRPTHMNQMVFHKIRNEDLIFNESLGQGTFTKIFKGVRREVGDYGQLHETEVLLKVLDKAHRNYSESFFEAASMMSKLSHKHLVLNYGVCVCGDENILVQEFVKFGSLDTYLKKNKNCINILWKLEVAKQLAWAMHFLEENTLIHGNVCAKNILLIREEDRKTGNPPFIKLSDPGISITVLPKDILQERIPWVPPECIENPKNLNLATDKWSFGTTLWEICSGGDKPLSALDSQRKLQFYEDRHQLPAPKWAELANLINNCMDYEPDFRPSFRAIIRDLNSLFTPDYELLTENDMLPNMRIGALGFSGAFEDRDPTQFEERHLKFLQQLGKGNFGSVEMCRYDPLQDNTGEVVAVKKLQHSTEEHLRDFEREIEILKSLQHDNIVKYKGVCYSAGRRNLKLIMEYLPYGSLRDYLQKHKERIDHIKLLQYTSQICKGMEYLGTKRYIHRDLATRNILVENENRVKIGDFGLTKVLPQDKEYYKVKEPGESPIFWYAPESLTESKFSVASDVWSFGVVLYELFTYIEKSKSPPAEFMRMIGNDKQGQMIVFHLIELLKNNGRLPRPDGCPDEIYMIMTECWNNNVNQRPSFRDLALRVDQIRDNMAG
Summary of the method: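 Both kinases: poly(Glu)4Tyr substrate in 100 mM HEPES pH 7.4, 10 mM MgCl2, 1 mM DTT. Run 20 min at 25° C, TCA stop, filter-bound ³³P counted, Ki(app) fitted after background subtraction. JAK3: final [γ-³³P]ATP 5 μM, enzyme added as 2 nM solution. JAK2: final poly(Glu)4Tyr 15 μM, final ATP 12 μM.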

T1 sequence (Q13464 6-553, species assumed): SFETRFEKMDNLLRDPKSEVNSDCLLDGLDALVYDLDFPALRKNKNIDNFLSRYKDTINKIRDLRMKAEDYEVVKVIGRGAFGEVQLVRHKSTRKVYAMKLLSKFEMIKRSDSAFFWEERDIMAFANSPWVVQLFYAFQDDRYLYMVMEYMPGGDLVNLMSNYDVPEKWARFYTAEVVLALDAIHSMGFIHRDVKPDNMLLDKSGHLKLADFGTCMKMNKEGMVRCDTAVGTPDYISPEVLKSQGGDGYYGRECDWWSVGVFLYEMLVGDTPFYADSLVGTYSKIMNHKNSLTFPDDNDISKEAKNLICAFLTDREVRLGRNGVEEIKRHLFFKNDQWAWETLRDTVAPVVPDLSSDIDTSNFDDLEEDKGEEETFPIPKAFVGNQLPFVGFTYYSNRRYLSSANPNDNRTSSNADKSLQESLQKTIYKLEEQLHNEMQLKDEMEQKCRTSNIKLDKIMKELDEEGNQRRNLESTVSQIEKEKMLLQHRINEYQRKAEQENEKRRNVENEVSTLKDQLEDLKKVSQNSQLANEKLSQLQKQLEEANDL

Structure (SMILES)	Ki [1] [nM]	Ki [2] [nM]	Ki [3] [nM]	Ki [4] [nM]	Ki [5] [nM]
C[C@H](Nc1cccc(-c2c[nH]c3ncc(Cl)cc23)n1)c1ccccc1 [Compound 252]	500 to 5000	< 500	< 500	–	–
C[C@@H](Nc1cccc(-c2c[nH]c3ncc(Cl)cc23)n1)c1ccccc1 [Compound 260]	500 to 5000	< 500	< 500	–	–
C[C@H](Nc1nc(-c2c[nH]c3ncc(Cl)cc23)ncc1F)c1cccc(NC(=O)OC(C)(C)C)c1 [Compound 331]	500 to 5000	< 500	< 500	–	–
O=C(CNc1nc(-c2c[nH]c3ncc(Cl)cc23)ncc1F)NCC(F)(F)F [Compound 400]	500 to 5000	< 500	< 500	–	–
COc1cnc(-c2c[nH]c3ncc(Cl)cc23)nc1N[C@@H](C)C(=O)NCC(F)(F)F [Compound 407]	500 to 5000	< 500	< 500	–	–
C#Cc1cnc(-c2c[nH]c3ncc(Cl)cc23)nc1N[C@@H](C)C(=O)NCC(F)(F)F [Compound 411]	500 to 5000	< 500	< 500	–	–
C[C@H](Nc1nc(-c2c[nH]c3ncc(Cl)cc23)ncc1F)C(=O)NCCNC(=O)OC(C)(C)C [Compound 426]	500 to 5000	–	< 500	< 500	–
CCc1cnc(Cl)nc1-c1c[nH]c2ncc(Cl)cc12 [Compound 428]	500 to 5000	–	< 500	500 to 5000	–
CNc1nc(-c2c[nH]c3ncc(Cl)cc23)nc(N[C@@H](C)C(=O)NCC(F)(F)F)c1C(C)C [Compound 432]	500 to 5000	–	500 to 5000	500 to 5000	–
C[C@H](Nc1nc(-c2c[nH]c3ncc(Cl)cc23)ncc1F)C(=O)NCCc1ccccc1 [Compound 433]	500 to 5000	–	500 to 5000	500 to 5000	–
C[C@H](Nc1nc(-c2c[nH]c3ncc(Cl)cc23)ncc1F)C(=O)NCCc1cn(C)cn1 [Compound 434]	500 to 5000	–	500 to 5000	500 to 5000	–
C[C@H](Nc1nc(-c2c[nH]c3ncc(Cl)cc23)ncc1F)C(=O)NCCN1CCOCC1 [Compound 435]	500 to 5000	–	500 to 5000	500 to 5000	–
C[C@H](Nc1nc(-c2c[nH]c3ncc(Cl)cc23)ncc1F)C(=O)NCCN1CCCC1 [Compound 436]	500 to 5000	–	500 to 5000	< 500	–
C[C@H](Nc1nc(-c2c[nH]c3ncc(Cl)cc23)ncc1F)C(=O)NCCc1c[nH]c2ccccc12 [Compound 437]	500 to 5000	–	< 500	500 to 5000	–
C[C@H](Nc1nc(-c2c[nH]c3ncc(Cl)cc23)ncc1F)C(=O)NCCc1ccccn1 [Compound 438]	500 to 5000	–	500 to 5000	500 to 5000	–
C[C@H](Nc1nc(-c2c[nH]c3ncc(Cl)cc23)ncc1F)C(=O)NCCCN1CCCC1 [Compound 439]	500 to 5000	–	< 500	< 500	–
CC(C)OCCCNC(=O)[C@H](C)Nc1nc(-c2c[nH]c3ncc(Cl)cc23)ncc1F [Compound 440]	500 to 5000	–	500 to 5000	500 to 5000	–
C[C@H](Nc1nc(-c2c[nH]c3ncc(Cl)cc23)ncc1F)C(=O)NCCN1CCNC1=O [Compound 441]	500 to 5000	–	500 to 5000	500 to 5000	500 to 5000
C[C@H](Nc1nc(-c2c[nH]c3ncc(Cl)cc23)ncc1F)C(=O)NCCCn1ccnc1 [Compound 442]	500 to 5000	–	< 500	500 to 5000	500 to 5000
C[C@H](Nc1nc(-c2c[nH]c3ncc(Cl)cc23)ncc1F)C(=O)NCC[C@H]1CCCN1C [Compound 448]	500 to 5000	–	500 to 5000	500 to 5000	–
C[C@H](Nc1nc(-c2c[nH]c3ncc(Cl)cc23)ncc1F)C(=O)NCCc1cccnc1 [Compound 449]	500 to 5000	–	< 500	500 to 5000	–
C[C@H](Nc1nc(-c2c[nH]c3ncc(Cl)cc23)ncc1F)C(=O)NCCN(C)C(=O)OC(C)(C)C [Compound 451]	500 to 5000	–	500 to 5000	500 to 5000	–
COc1ccccc1OCCNC(=O)[C@H](C)Nc1nc(-c2c[nH]c3ncc(Cl)cc23)ncc1F [Compound 453]	500 to 5000	–	500 to 5000	500 to 5000	–
CN(C)CC[C@H](Nc1nc(-c2c[nH]c3ncc(Cl)cc23)ncc1F)C(=O)N(C)C [Compound 456]	500 to 5000	–	< 500	500 to 5000	–
